Assay results as given in the Kinase Knowledgebase extract (Sharma et al. 2016).

Legend:
CDK2 = CDK2 (UniProt P24941); experiment: Enzyme Assay
CDK2 (human) [1] = biological target: CDK2 (human) (UniProt P24941); experiment: Cell-Based Assay
CDK2 (human) [2] = biological target: CDK2 (human) (UniProt P24941); experiment: Cell-Based Assay; conditions: hdf
CDK2 (human) [3] = biological target: CDK2 (human) (UniProt P24941); experiment: Cell-Based Assay; conditions: rko

| Structure (SMILES) | IC50 (CDK2) [nM] | IC50 (CDK2 (human) [1]; hdf-3) [nM] | IC50 (CDK2 (human) [1]; mda-mb-468) [nM] | IC50 (CDK2 (human) [1]; mes/sa) [nM] | IC50 (CDK2 (human) [1]; rko) [nM] | IC50 (CDK2 (human) [2]) [nM] | IC50 (CDK2 (human) [3]) [nM] | IC50 (CDK2 (human) [1]; hdf) [nM] |
| --- | --- | --- | --- | --- | --- | --- | --- | --- |
| CN(C)S(=O)(=O)c1ccc(N/C=C2\C(=O)Nc3ccc(-c4cnco4)cc32)cc1 | 1 to 10 | > 5000 | > 5000 | > 5000 | 1100 to 5000 | > 5000 | 1100 to 5000 | – |
| NS(=O)(=O)c1ccc(NN=C2C(=O)Nc3ccc(-c4cnco4)cc32)cc1 | 1 to 10 | 600 to 1000 | 600 to 1000 | 100 to 500 | 600 to 1000 | > 5000 | 600 to 1000 | 1100 to 5000 |
| O=C1Nc2ccc3ncsc3c2/C1=C/Nc1ccc2nn[nH]c2c1 | 11 to 50 | > 5000 | 1100 to 5000 | – | – | > 5000 | > 5000 | > 5000 |
| CS(=O)(=O)Cc1ccc(N/C=C2\C(=O)Nc3ccc4ncsc4c32)cc1 | 11 to 50 | 1100 to 5000 | – | 1100 to 5000 | > 5000 | > 5000 | 1100 to 5000 | > 5000 |
| CCC(C)Cc1cccc2c1C(=NNc1ccc(S(N)(=O)=O)cc1)C(=O)N2 (stereo not given) | 1 to 10 | 1100 to 5000 | – | – | – | > 5000 | 1100 to 5000 | – |
| CNS(=O)(=O)Cc1ccc(NN=C2C(=O)Nc3ccc4ncccc4c32)cc1 | 1 to 10 | 1100 to 5000 | – | – | > 5000 | > 5000 | 1100 to 5000 | > 5000 |
| CNS(=O)(=O)Cc1ccc(NN=C2C(=O)Nc3cc(C)c(O)c(C)c32)cc1 | 51 to 100 | 1100 to 5000 | – | > 5000 | 100 to 500 | > 5000 | 100 to 500 | 600 to 1000 |
